Measured values: PubChem BioAssay (NCI)
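Where inhibition never reached the appropriate level, the endpoint shown equals the highest concentration tested. Otherwise, values were interpolated linearly from a five-concentration, 48-hour dose response in 96-well plates. The concentration for 50% growth inhibition is given as GI50. TGI marks complete inhibition of growth.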

Assays:
Test in all cases: NCI anticancer screen, dose series, 48 h
[1] = system: A498 renal
[2] = system: HOP-62 NSCLC
[3] = system: T-47D breast
[4] = system: NCI-H522 lung
[5] = system: U251 CNS
[6] = system: BT-549 breast
[7] = system: MOLT-4 leukemia
[8] = system: OVCAR-4 ovarian
[9] = system: OVCAR-8 ovarian
[10] = system: MDA-N
[11] = system: SF-268 CNS
[12] = system: UACC-62 melanoma
[13] = system: RXF 393 renal
[14] = system: RPMI-8226 leukemia
[15] = system: OVCAR-5 ovarian
[16] = system: MALME-3M melanoma
[17] = system: SK-OV-3 ovarian

SMILES: FC(F)(F)c1nc2ccc(SSc3ccc4nc(C(F)(F)F)[nH]c4c3)cc2[nH]1
- GI50 [1]: > 100 µM
- TGI [1]: > 100 µM
- TGI [2]: > 100 µM
- TGI [3]: > 100 µM
- TGI [4]: > 100 µM
- TGI [5]: > 100 µM
- TGI [6]: > 100 µM
- TGI [7]: > 100 µM
- TGI [8]: > 100 µM
- TGI [9]: > 100 µM
- TGI [10]: > 100 µM
- GI50 [11]: > 100 µM
- TGI [11]: > 100 µM
- TGI [12]: > 100 µM
- GI50 [13]: > 100 µM
- TGI [13]: > 100 µM
- TGI [14]: 65 µM
- TGI [15]: > 100 µM

SMILES: O=C1CSC(/C=C/c2ccccc2)N1c1ccc(-c2ccc(-n3c(-c4ccccc4)nc4ccccc4c3=O)cc2)cc1 (stereo not given)
- TGI [1]: > 100 µM
- TGI [2]: 99.2 µM
- TGI [16]: 64.4 µM
- TGI [3]: > 100 µM
- TGI [4]: 42.9 µM
- TGI [5]: 88.5 µM
- TGI [6]: 39.2 µM
- TGI [7]: > 100 µM
- TGI [8]: 63 µM
- TGI [9]: 92.7 µM
- TGI [10]: 67.9 µM
- TGI [17]: > 100 µM
- TGI [11]: > 100 µM
- TGI [12]: > 100 µM
- TGI [14]: > 100 µM
- TGI [15]: 41.6 µM

SMILES: O=c1cc(CO)n(CCc2c[nH]c3ccccc23)cc1O
- TGI [2]: > 100 µM
- TGI [16]: 57.5 µM
- TGI [3]: 80.5 µM
- TGI [4]: 78.7 µM
- TGI [5]: > 100 µM
- TGI [6]: > 100 µM
- TGI [7]: 47.8 µM
- TGI [9]: > 100 µM
- TGI [10]: > 100 µM
- TGI [17]: > 100 µM
- TGI [11]: 53.2 µM
- TGI [12]: > 100 µM
- TGI [14]: > 100 µM
- TGI [15]: > 100 µM

SMILES: COc1cccc(/C(CC(O)(C(F)(F)F)C(F)(F)F)=N\N(C)C)c1
- TGI [1]: > 100 µM
- TGI [2]: > 100 µM
- TGI [16]: > 100 µM
- TGI [3]: > 100 µM
- TGI [4]: > 100 µM
- TGI [5]: > 100 µM
- TGI [7]: > 100 µM
- TGI [8]: > 100 µM
- TGI [10]: > 100 µM
- TGI [17]: > 100 µM
- TGI [11]: > 100 µM
- TGI [12]: > 100 µM
- TGI [13]: > 100 µM
- TGI [14]: > 100 µM
- TGI [15]: > 100 µM

SMILES: Cc1cc(C)nc(NS(=O)(=O)c2ccc(NN=c3c4ccccc4n(C)c4ccccc34)cc2)n1
- TGI [2]: > 100 µM
- TGI [16]: 91.3 µM
- TGI [3]: 80.8 µM
- TGI [4]: 61.5 µM
- TGI [5]: > 100 µM
- TGI [6]: > 100 µM
- TGI [7]: 79.6 µM
- TGI [8]: 99.3 µM
- TGI [9]: > 100 µM
- TGI [10]: 59.6 µM
- TGI [17]: > 100 µM
- TGI [11]: > 100 µM
- TGI [12]: > 100 µM
- TGI [13]: 50.8 µM
- TGI [14]: > 100 µM
- TGI [15]: > 100 µM

SMILES: CN(C)/C(N)=N/C(N)=Nc1cccc(Cl)c1
- TGI [2]: > 100 µM
- TGI [16]: > 100 µM
- TGI [3]: 77.2 µM
- TGI [5]: > 100 µM
- TGI [6]: 92.5 µM
- TGI [7]: > 100 µM
- TGI [8]: > 100 µM
- TGI [9]: > 100 µM
- TGI [10]: > 100 µM
- TGI [17]: > 100 µM
- TGI [11]: > 100 µM
- TGI [12]: > 100 µM
- TGI [14]: > 100 µM
- TGI [15]: > 100 µM

SMILES: N#Cc1nc(CSCc2ccccc2)oc1N
- TGI [1]: > 100 µM
- TGI [2]: > 100 µM
- TGI [16]: > 100 µM
- TGI [3]: > 100 µM
- TGI [4]: > 100 µM
- TGI [5]: > 100 µM
- TGI [6]: > 100 µM
- TGI [7]: > 100 µM
- TGI [8]: > 100 µM
- TGI [9]: > 100 µM
- TGI [10]: > 100 µM
- TGI [17]: > 100 µM
- TGI [11]: > 100 µM
- TGI [12]: > 100 µM
- TGI [13]: > 100 µM
- TGI [15]: > 100 µM

SMILES: COc1ccc(-c2cc(-c3ccc(Cl)cc3)n(C3OC(CO)C(O)C(O)C3O)c(=S)c2C#N)cc1 (stereo not given)
- TGI [2]: > 100 µM
- TGI [3]: > 100 µM
- TGI [5]: > 100 µM
- TGI [6]: > 100 µM
- TGI [7]: > 100 µM
- TGI [8]: > 100 µM
- TGI [9]: > 100 µM
- TGI [10]: > 100 µM
- TGI [17]: > 100 µM
- TGI [11]: > 100 µM
- TGI [12]: > 100 µM
- TGI [14]: > 100 µM
- TGI [15]: 82.2 µM

SMILES: O=c1[nH]c(=O)n(C2CC(O)C(CO)O2)cc1OCCc1ccccc1 (stereo not given)
- TGI [2]: > 100 µM
- TGI [16]: > 100 µM
- TGI [3]: > 100 µM
- TGI [4]: > 100 µM
- TGI [5]: > 100 µM
- TGI [6]: > 100 µM
- TGI [7]: > 100 µM
- TGI [8]: > 100 µM
- TGI [9]: > 100 µM
- TGI [10]: > 100 µM
- TGI [17]: > 100 µM
- TGI [11]: > 100 µM
- TGI [12]: > 100 µM
- TGI [13]: > 100 µM
- TGI [14]: > 100 µM
- TGI [15]: > 100 µM

SMILES: CCSc1c(C)c2c(n(Cc3ccc(OC)cc3)c1=O)Cc1ccccc1C2
- TGI [2]: > 100 µM
- TGI [16]: 45.7 µM
- TGI [3]: > 100 µM
- TGI [4]: 40.1 µM
- TGI [5]: 82.4 µM
- TGI [6]: 93.4 µM
- TGI [7]: 14.8 µM
- TGI [8]: > 100 µM
- TGI [9]: > 100 µM
- TGI [10]: > 100 µM
- TGI [17]: > 100 µM
- TGI [11]: > 100 µM
- TGI [12]: > 100 µM
- TGI [13]: > 100 µM
- TGI [15]: > 100 µM

SMILES: Nc1ccc(-c2ncc3cc(-c4cccc(-c5cc6cnc(-c7ccc(N)cc7)nc6c6ccccc56)c4)c4ccccc4c3n2)cc1
- TGI [1]: > 100 µM
- TGI [2]: > 100 µM
- TGI [3]: > 100 µM
- TGI [4]: > 100 µM
- TGI [5]: > 100 µM
- TGI [6]: > 100 µM
- TGI [7]: > 100 µM
- TGI [9]: > 100 µM
- TGI [10]: > 100 µM
- TGI [17]: > 100 µM
- TGI [11]: > 100 µM
- TGI [12]: > 100 µM
- TGI [13]: > 100 µM
- TGI [14]: > 100 µM
- TGI [15]: > 100 µM

SMILES: Cc1cccc2[nH]c3cc(O)cc(O)c3c(=O)c12
- TGI [2]: > 10 µM
- TGI [16]: > 10 µM
- TGI [3]: > 10 µM
- TGI [4]: > 10 µM
- TGI [5]: > 10 µM
- TGI [6]: > 10 µM
- TGI [7]: > 10 µM
- TGI [8]: > 10 µM
- TGI [9]: > 10 µM
- TGI [10]: > 10 µM
- TGI [17]: > 10 µM
- TGI [11]: > 10 µM
- TGI [12]: > 10 µM
- TGI [13]: > 10 µM
- TGI [14]: > 10 µM
- TGI [15]: > 10 µM

SMILES: N#Cc1nc(C2CC2)oc1N
- TGI [2]: > 100 µM
- TGI [16]: > 100 µM
- TGI [3]: > 100 µM
- TGI [4]: > 100 µM
- TGI [5]: > 100 µM
- TGI [6]: > 100 µM
- TGI [7]: > 100 µM
- TGI [8]: > 100 µM
- TGI [9]: > 100 µM
- TGI [10]: > 100 µM
- TGI [17]: > 100 µM
- TGI [11]: > 100 µM
- TGI [12]: > 100 µM
- TGI [13]: > 100 µM
- TGI [14]: > 100 µM
- TGI [15]: > 100 µM

SMILES: CC1(C)OCC2(CO1)CSCCCSCC1(COC(C)(C)OC1)CSCCCSC2
- TGI [2]: > 100 µM
- TGI [3]: > 100 µM
- TGI [4]: > 100 µM
- TGI [5]: > 100 µM
- TGI [6]: > 100 µM
- TGI [7]: > 100 µM
- TGI [8]: > 100 µM
- TGI [9]: > 100 µM
- TGI [10]: > 100 µM
- TGI [17]: > 100 µM
- TGI [11]: > 100 µM
- TGI [12]: > 100 µM
- TGI [14]: > 100 µM
- TGI [15]: > 100 µM

SMILES: CCOC(=O)N1CCN(c2c(C)nc(C)[nH]c2=O)CC1
- TGI [1]: > 100 µM
- TGI [2]: > 100 µM
- TGI [16]: > 100 µM
- TGI [3]: > 100 µM
- TGI [4]: > 100 µM
- TGI [5]: > 100 µM
- TGI [6]: > 100 µM
- TGI [7]: > 100 µM
- TGI [8]: > 100 µM
- TGI [9]: > 100 µM
- TGI [10]: > 100 µM
- TGI [17]: > 100 µM
- TGI [11]: > 100 µM
- TGI [12]: > 100 µM
- TGI [13]: > 100 µM
- TGI [14]: > 100 µM
